From PubChem BioAssay (NCI) come the findings set out here.

Test systems include SNB-75 CNS; M14 melanoma; UO-31 renal; OVCAR-3 ovarian; SK-MEL-5 melanoma; RXF 393 renal; HOP-62 NSCLC; SK-MEL-2 melanoma; SF-539 CNS; 786-0 renal.
Holding throughout (experiment): growth of human tumour cells (NCI), 48 h

Where “and” joins values, the source holds several entries; their conditions need not be identical. Equal values may be shown once.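 Briefly, cells in 96-well plates were exposed to five compound concentrations for 48 h, and endpoints were estimated by linear interpolation. The concentration for 50% growth inhibition is given as GI50. TGI is the concentration that stops growth completely.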

As to `C[N+](C)(C)CC1CCCc2ccccc2C1=O` (configuration not stated), the TGI is 34.3 µM in the experiment on SNB-75 CNS; 9.49 µM and 19.7 µM in the experiment with M14 melanoma; 30.7 µM in the experiment on UO-31 renal; 17.7 µM in the experiment on OVCAR-3 ovarian; 15.5 µM with SK-MEL-5 melanoma; 30.1 µM in the experiment on RXF 393 renal. The TGI with HOP-62 NSCLC is 34.3 µM; in the experiment with SK-MEL-2 melanoma, 27.2 µM; with SF-539 CNS it was 31.7 µM; with 786-0 renal, 6.44 µM and 21.7 µM. Further, the GI50 with M14 melanoma is 7.85 µM; in the experiment on RXF 393 renal it was 15.8 µM; with SF-539 CNS, 8.75 µM; with 786-0 renal, 8.46 µM.

In the case of `O=C(O)COc1ccc2c(=O)c3sc4c(=O)c5ccccc5c(=O)c4c3c(=O)c2c1`, the GI50 was 2.06 µM with SNB-75 CNS; 2.69 µM in the experiment on M14 melanoma; 11.8 µM with UO-31 renal; 13.5 µM with OVCAR-3 ovarian; 1.75 µM in the experiment with SK-MEL-5 melanoma; 12.6 µM in the experiment on RXF 393 renal. In addition, the GI50 with HOP-62 NSCLC is 8.03 µM; in the experiment with SK-MEL-2 melanoma it was 19.8 µM; in the experiment with SF-539 CNS it was 13.2 µM; in the experiment on 786-0 renal, 21.8 µM. Further, the TGI came out at 11.7 µM in the experiment on SNB-75 CNS; 7.53 µM in the experiment with M14 melanoma; 30.1 µM with UO-31 renal; 33.9 µM in the experiment with OVCAR-3 ovarian; 3.35 µM with SK-MEL-5 melanoma; 28.1 µM with RXF 393 renal. The TGI worked out at 22.4 µM in the experiment with HOP-62 NSCLC, 49.3 µM with SK-MEL-2 melanoma, 26.1 µM with SF-539 CNS and 76.1 µM in the experiment on 786-0 renal.

As for `Cc1cc(Cl)cc(OCCn2cc(F)cn2)c1-c1nc(N)nc2c1CN(C(=O)NCC(C)(F)F)C2`, the TGI with SNB-75 CNS, with M14 melanoma, in the experiment on UO-31 renal, with OVCAR-3 ovarian, in the experiment with SK-MEL-5 melanoma and in the experiment on RXF 393 renal was > 100 µM throughout. In addition, the TGI in the experiment on HOP-62 NSCLC, in the experiment on SK-MEL-2 melanoma, in the experiment on SF-539 CNS and in the experiment on 786-0 renal was > 100 µM throughout. Further, the GI50 in the experiment on M14 melanoma is 0.0848 µM; with UO-31 renal, 0.682 µM; in the experiment on OVCAR-3 ovarian it was 0.54 µM; in the experiment with SK-MEL-5 melanoma, 0.179 µM; with HOP-62 NSCLC, 0.622 µM; with SK-MEL-2 melanoma it was 0.508 µM. Further, the GI50 is 0.181 µM in the experiment with SF-539 CNS and 3.18 µM in the experiment with 786-0 renal.

On to `Cn1cc(C2=C(c3ccc(N)cc3)C(=O)NC2=O)c2ccccc21`, for which the GI50 in the experiment with SNB-75 CNS is 0.571 µM; in the experiment with M14 melanoma, > 20.4 µM; in the experiment with UO-31 renal it was 16.5 µM; in the experiment with OVCAR-3 ovarian, 14.3 µM; in the experiment with SK-MEL-5 melanoma, > 17.8 µM; in the experiment with RXF 393 renal, 4.85 µM. Besides, the GI50 with HOP-62 NSCLC is > 25 µM; in the experiment on SK-MEL-2 melanoma, 8.38 µM; in the experiment with SF-539 CNS, 9.02 µM; with 786-0 renal, 11.9 µM. In addition, the TGI in the experiment on SNB-75 CNS is > 15.2 µM; in the experiment on M14 melanoma it was > 25 µM; in the experiment on UO-31 renal it was > 25 µM; in the experiment on OVCAR-3 ovarian, > 25 µM; in the experiment on SK-MEL-5 melanoma, > 25 µM; in the experiment on RXF 393 renal, > 22.9 µM. Besides, the TGI is > 25 µM with HOP-62 NSCLC, > 19 µM in the experiment on SK-MEL-2 melanoma, > 25 µM in the experiment with SF-539 CNS and > 25 µM with 786-0 renal.

For `CC(=O)CCn1ncc(Cl)c(Cl)c1=O`, the TGI in the experiment on SNB-75 CNS worked out at 72 µM; with M14 melanoma it was 29.7 µM; in the experiment on UO-31 renal, 34.6 µM; in the experiment with OVCAR-3 ovarian, 27.5 µM; in the experiment with SK-MEL-5 melanoma, 33.5 µM; in the experiment on RXF 393 renal it was 32.9 µM. The TGI amounted to 35.4 µM with HOP-62 NSCLC, 28.4 µM in the experiment on SK-MEL-2 melanoma, 38.5 µM in the experiment with SF-539 CNS and 54.9 µM in the experiment on 786-0 renal.

As to `Nc1nc(Cl)cc(NCCCCCCCCNc2cc(Cl)nc(N)n2)n1`, the TGI was 74.4 µM in the experiment on SNB-75 CNS; > 100 µM in the experiment with M14 melanoma; > 100 µM in the experiment on UO-31 renal; > 100 µM with OVCAR-3 ovarian; 13 µM in the experiment on SK-MEL-5 melanoma; 72 µM in the experiment with RXF 393 renal. The TGI in the experiment on HOP-62 NSCLC, in the experiment with SK-MEL-2 melanoma, in the experiment on SF-539 CNS and in the experiment on 786-0 renal was > 100 µM each time.

With `O=C(Nc1ccc(Br)cc1F)c1cc(F)ccc1O`, the GI50 in the experiment on SNB-75 CNS is 0.225 µM; in the experiment on M14 melanoma, 0.514 µM; in the experiment with UO-31 renal, 0.21 µM; in the experiment with OVCAR-3 ovarian it was 0.411 µM; in the experiment on SK-MEL-5 melanoma it was 0.227 µM; in the experiment on RXF 393 renal, 0.554 µM. The GI50 was 1.56 µM in the experiment on HOP-62 NSCLC, 0.398 µM with SK-MEL-2 melanoma, 0.42 µM in the experiment with SF-539 CNS and 2.41 µM with 786-0 renal. Besides, the TGI with SNB-75 CNS is 2.11 µM; with M14 melanoma, 4.07 µM; in the experiment with UO-31 renal, 1.27 µM; in the experiment on OVCAR-3 ovarian, 6.64 µM; in the experiment on SK-MEL-5 melanoma, 0.541 µM; in the experiment on RXF 393 renal it was 3.1 µM. Further, the TGI in the experiment with HOP-62 NSCLC was 7.82 µM; in the experiment on SK-MEL-2 melanoma, 2.56 µM; in the experiment on SF-539 CNS it was 4.2 µM; with 786-0 renal, 7.49 µM.

`CCN1CCN(C(=O)[C@@]2(C)CC[C@]3(C)CC[C@]4(C)C(=CC(=O)[C@@H]5[C@@]6(C)CC[C@H](OC7C[C@@H](O)[C@@H](O)C(C)O7)C(C)(C)[C@@H]6CC[C@]54C)[C@@H]3C2)CC1` (some centres not stated): the GI50 in the experiment with SNB-75 CNS was 6.39 µM; with M14 melanoma, 1.04 µM; in the experiment on UO-31 renal, 0.757 µM; in the experiment on OVCAR-3 ovarian, 8.75 µM; in the experiment with SK-MEL-5 melanoma it was 1.56 µM; in the experiment on RXF 393 renal, 3.73 µM. In addition, the GI50 with HOP-62 NSCLC was 2.39 µM; in the experiment on SK-MEL-2 melanoma it was 8.95 µM; in the experiment with SF-539 CNS, 0.937 µM; with 786-0 renal it was 0.933 µM. Besides, the TGI in the experiment on SNB-75 CNS amounted to 12.8 µM; in the experiment on M14 melanoma it was 2.19 µM; in the experiment on UO-31 renal, 1.53 µM; in the experiment on OVCAR-3 ovarian it was 16.7 µM; in the experiment on SK-MEL-5 melanoma, 4.6 µM; in the experiment with RXF 393 renal it was 11.5 µM. Moreover, the TGI with HOP-62 NSCLC was 10.8 µM; in the experiment with SK-MEL-2 melanoma it was 17.9 µM; in the experiment on SF-539 CNS it was 1.85 µM; in the experiment with 786-0 renal, 1.82 µM.
